As usually defined, the AC50 is the midpoint of the concentration-response curve, whichever way the signal moves. One may read the pEC50 as the EC50 on a negative log10 scale, so that one unit is a factor of ten. A word on the IC50: it is the concentration at which inhibition is half-maximal.

Data on nine compounds can be found in ChEMBL document CHEMBL1201862, “PubChem BioAssay data set” (2004).

pEC50: −log10 of the molar value. The source made the active and inactive calls.

One assay concerns HEK293. The experiment in a line: viability loss in HEK293T cells – cell-based, ATP luminescence, cherry-pick samples, cytotoxicity control, dose response (AID 687005).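 Note: cells exposed to compound for 48 hours.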 The following applies: Homo sapiens. It counts as functional.
Assay [1] is described as follows: HEK293 Cytotoxicity Assay Measured in Cell-Based System Using Plate Reader - 7071-01_Inhibitor_Dose_CherryPick_Activity_Set2. It counts as functional.
For a further assay, the system named is A549. The experiment in a line: viability loss in A549 cells – cell-based, plate reader, cherry-pick samples, cytotoxicity control, dose response (AID 687028). The assay is classed as functional. The following applies: Homo sapiens.
Assay [2] has as its target Metabotropic glutamate receptor 5 (Rattus norvegicus, UniProt P31424). The experiment in a line: Identification of a glycine sulfonamide based non-MPEP site positive allosteric potentiator (PAM) of mGlu5 (calcium_assay). The assay is classed as functional.
A further assay addresses Mu-type opioid receptor (Homo sapiens, UniProt P35372). The experiment in a line: Late-stage results from the probe development effort to identify antagonists of OPRK1: luminescence-based cell-based dose response OPRM1 counterscreen. The assay is classed as functional. For orientation: A counterscreen serves to expose hits that act by an unwanted route or on another target.

Assay [3] addresses Delta-type opioid receptor (Homo sapiens, UniProt P41143). Briefly: Late-stage results from the probe development effort to identify antagonists of OPRK1: fluorescence-based cell-based dose response OPRD1 counterscreen. The assay is classed as functional.
The target of assay [4] is Sphingosine 1-phosphate receptor 1 (Homo sapiens, UniProt P21453). Briefly: Late-stage counterscreen for antagonists of kappa opioid receptor 1 (OPRK1): fluorescence-based cell-based dose response assay to identify antagonists of Sphingosine 1-Phosphate Receptor 1 (S1P1). It counts as functional.
Sequence of Sphingosine 1-phosphate receptor 1 (P21453 whole entry): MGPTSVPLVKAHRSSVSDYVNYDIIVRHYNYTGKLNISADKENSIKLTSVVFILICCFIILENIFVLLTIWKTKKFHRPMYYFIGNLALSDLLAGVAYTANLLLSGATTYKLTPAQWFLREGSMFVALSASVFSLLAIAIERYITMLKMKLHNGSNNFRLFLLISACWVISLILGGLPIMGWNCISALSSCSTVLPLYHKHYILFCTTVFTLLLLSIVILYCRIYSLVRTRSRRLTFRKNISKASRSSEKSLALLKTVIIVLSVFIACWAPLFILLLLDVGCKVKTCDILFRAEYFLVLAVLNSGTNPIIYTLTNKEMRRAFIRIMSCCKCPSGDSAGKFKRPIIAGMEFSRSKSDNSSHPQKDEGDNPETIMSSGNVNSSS
In a further assay the target is Protein Wnt-3a (Mus musculus, UniProt P27467). The experiment in a line: SAR analysis of small molecule antagonists of Gli-SUFU in a Wnt3a luminescent reporter assay. The assay is classed as functional. Background: Reporter assays use an easily measured gene product as a stand-in for the process of interest.
Sequence of Protein Wnt-3a (P27467 whole entry): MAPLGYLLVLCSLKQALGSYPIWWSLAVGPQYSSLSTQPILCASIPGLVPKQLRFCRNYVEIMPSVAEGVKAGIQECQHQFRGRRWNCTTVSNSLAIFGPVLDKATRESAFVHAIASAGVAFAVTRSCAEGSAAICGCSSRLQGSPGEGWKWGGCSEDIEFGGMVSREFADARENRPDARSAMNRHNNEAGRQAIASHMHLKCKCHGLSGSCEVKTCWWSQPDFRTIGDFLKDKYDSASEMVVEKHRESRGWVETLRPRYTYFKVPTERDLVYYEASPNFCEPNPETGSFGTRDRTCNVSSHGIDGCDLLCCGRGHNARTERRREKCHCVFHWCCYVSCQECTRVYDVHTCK
The target in assay [5] is Endoplasmic reticulum aminopeptidase 1 (Homo sapiens, UniProt Q9NZ08). Briefly: inhibition of human ERAP1 enzyme activity – biochemical, cherry-pick, set 2, plate reader, dose response (AID 743314).
Sequence of Endoplasmic reticulum aminopeptidase 1 (Q9NZ08 whole entry): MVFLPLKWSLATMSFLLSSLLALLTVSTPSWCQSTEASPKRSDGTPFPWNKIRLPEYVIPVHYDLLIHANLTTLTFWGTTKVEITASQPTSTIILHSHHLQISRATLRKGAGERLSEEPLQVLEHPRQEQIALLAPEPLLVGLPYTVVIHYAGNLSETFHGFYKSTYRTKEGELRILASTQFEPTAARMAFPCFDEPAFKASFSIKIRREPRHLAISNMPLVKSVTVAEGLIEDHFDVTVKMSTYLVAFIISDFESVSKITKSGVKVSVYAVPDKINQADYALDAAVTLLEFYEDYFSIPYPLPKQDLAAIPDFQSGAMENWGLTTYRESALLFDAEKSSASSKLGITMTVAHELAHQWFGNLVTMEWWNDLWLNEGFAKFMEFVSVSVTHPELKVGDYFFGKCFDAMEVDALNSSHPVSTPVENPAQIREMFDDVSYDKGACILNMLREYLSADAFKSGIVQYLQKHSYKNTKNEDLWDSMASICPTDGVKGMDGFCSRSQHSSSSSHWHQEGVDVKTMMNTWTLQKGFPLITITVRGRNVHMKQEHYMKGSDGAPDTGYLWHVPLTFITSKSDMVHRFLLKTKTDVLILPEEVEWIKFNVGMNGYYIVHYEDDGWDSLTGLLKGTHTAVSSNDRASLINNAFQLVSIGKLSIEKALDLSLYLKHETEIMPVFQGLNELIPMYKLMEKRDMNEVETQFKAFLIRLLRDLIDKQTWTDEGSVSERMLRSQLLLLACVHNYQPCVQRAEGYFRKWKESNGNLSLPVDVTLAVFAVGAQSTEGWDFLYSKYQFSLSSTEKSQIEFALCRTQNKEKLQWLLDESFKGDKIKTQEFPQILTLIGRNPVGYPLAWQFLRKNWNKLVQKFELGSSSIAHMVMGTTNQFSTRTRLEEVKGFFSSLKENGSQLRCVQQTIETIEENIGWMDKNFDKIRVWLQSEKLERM
Assay [6] is described as follows: inhibitors of TRPM1-promoter reporter in SK-MEL-5 – cell-based, luciferase, dry powder, set 8, MITF inhibitor project, dose response (AID 624430). It counts as functional.
The nature of assay [7]: MITF: Counter assay: A375 proliferation Measured in Cell-Based System Using Plate Reader - 2084-03_Inhibitor_Dose_DryPowder_Activity_Set8. The assay is classed as functional. To be noted: A-375.
Assay [8] in a line: MITF Orthogonal Assay: SK-MEL-5 CTG Assay Measured in Cell-Based System Using Plate Reader - 2084-02_Inhibitor_Dose_DryPowder_Activity_Set7. It counts as functional.
Assay [9] addresses Beta-lactamase (Salmonella choleraesuis (strain SC-B67), UniProt Q5J463). Briefly: Epi-absorbance-based counterscreen for selective VIM-2 inhibitors: dose response biochemical high throughput screening assay to identify inhibitors of TEM-1 serine-beta-lactamase.
The target of assay [10] is T1, Beta-lactamase (Pseudomonas aeruginosa, UniProt Q79MP6). The experiment in a line: […] counterscreen for selective VIM-2 inhibitors: dose response biochemical high throughput screening assay to identify inhibitors of IMP-1 metallo-beta-lactamase.
T1 sequence (Q79MP6 whole entry): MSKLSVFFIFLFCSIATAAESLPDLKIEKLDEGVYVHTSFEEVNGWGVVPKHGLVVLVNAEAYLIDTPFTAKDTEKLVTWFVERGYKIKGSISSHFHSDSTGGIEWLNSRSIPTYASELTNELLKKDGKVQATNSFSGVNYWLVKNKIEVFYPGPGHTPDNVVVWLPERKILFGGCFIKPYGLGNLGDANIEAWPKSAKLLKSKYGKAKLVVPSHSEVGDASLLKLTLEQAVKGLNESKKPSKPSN
Assay [11] addresses T2, Beta Lactamase (Pseudomonas aeruginosa, UniProt Q932Y6). The experiment in a line: concentration-dependent VIM-2 enzyme inhibition – biochemical, epi-absorbance readout, selective inhibitors, dose response (AID 1919).
In assay [12] the target is T1, Beta-lactamase. Briefly: inhibition of IMP-1 beta-lactamase activity – biochemical, epi-absorbance, selectivity assay for VIM-2 inhibitor project, dose response (AID 1920).
For assay [13], the target named is T2, Beta Lactamase. Briefly: VIM-2 CCF2 hydrolysis inhibition, assay artifact filter – biochemical, FRET readout, CCF2 substrate, artefact control for selective VIM-2 inhibitor project, dose response (AID 1926).

T2 sequence (Q932Y6 whole entry): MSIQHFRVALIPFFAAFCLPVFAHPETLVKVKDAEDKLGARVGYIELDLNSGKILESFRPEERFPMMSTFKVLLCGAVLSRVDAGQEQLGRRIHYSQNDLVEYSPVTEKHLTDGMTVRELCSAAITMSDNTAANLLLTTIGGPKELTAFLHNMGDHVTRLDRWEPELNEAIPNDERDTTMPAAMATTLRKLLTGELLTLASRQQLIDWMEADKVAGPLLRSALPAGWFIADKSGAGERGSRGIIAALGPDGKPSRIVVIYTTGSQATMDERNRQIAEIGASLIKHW
Sequence of Mu-type opioid receptor (P35372 whole entry): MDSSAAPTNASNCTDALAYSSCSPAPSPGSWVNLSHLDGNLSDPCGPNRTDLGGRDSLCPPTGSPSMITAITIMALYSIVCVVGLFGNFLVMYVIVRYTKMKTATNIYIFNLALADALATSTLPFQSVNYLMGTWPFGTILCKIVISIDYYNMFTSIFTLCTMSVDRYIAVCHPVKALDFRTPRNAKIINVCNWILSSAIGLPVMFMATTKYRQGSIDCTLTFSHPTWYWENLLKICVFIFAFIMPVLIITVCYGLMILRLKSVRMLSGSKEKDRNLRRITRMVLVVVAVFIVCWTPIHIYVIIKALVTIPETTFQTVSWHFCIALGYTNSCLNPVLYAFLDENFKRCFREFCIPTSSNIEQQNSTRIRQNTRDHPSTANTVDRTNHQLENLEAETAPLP
Sequence of Delta-type opioid receptor (P41143 whole entry): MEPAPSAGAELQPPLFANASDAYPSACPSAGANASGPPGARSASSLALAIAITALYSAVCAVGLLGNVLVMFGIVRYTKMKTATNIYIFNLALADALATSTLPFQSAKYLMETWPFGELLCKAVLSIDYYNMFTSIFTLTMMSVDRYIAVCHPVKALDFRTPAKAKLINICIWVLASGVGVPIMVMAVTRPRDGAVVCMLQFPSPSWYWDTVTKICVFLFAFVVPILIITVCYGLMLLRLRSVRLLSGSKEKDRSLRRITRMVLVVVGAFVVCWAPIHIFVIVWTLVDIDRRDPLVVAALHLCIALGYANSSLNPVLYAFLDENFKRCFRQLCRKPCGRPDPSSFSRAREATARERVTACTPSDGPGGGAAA
Sequence of Metabotropic glutamate receptor 5 (P31424 whole entry): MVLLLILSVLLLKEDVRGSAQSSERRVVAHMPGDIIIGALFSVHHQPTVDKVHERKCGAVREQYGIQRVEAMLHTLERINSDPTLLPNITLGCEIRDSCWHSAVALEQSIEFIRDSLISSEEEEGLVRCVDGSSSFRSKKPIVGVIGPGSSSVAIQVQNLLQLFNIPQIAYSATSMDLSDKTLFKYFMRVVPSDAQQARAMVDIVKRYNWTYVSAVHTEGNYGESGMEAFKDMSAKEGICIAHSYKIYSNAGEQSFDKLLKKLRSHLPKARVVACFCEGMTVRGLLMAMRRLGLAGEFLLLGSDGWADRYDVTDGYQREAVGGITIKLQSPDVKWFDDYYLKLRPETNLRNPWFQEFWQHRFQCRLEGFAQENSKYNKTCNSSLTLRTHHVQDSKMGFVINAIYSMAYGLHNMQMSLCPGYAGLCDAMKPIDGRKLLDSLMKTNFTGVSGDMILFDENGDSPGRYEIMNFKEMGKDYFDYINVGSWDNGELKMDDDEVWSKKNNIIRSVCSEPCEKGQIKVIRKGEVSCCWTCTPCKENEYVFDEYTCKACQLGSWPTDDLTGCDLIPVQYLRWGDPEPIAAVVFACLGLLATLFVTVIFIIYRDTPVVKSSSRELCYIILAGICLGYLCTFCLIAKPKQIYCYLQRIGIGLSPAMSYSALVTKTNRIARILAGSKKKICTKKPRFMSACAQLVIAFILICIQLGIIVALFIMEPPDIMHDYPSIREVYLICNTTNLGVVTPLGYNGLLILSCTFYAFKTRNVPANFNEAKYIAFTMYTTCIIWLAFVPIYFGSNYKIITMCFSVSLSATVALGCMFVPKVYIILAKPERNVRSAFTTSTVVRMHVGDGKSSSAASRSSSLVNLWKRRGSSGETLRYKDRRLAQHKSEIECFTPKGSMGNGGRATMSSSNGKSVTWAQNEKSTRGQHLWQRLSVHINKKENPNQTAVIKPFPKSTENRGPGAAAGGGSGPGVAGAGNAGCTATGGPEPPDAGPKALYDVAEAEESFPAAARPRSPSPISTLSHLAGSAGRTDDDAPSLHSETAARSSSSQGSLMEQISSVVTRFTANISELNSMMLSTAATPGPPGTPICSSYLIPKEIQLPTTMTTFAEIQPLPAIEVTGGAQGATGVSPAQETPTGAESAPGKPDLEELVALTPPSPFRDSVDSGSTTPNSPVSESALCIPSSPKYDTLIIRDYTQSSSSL
Sequence of Beta-lactamase (Salmonella choleraesuis (strain SC-B67), UniProt Q5J463) (Q5J463 whole entry): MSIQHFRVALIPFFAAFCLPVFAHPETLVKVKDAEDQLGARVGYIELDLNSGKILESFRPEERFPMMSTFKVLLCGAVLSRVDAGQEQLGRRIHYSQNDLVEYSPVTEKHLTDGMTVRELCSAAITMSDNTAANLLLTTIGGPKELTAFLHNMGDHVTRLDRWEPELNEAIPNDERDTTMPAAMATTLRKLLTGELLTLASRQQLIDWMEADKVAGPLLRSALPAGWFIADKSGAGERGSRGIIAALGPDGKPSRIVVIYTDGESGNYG

As for `O=S(=O)(NC[C@@H]1[C@@H](c2ccccc2)[C@H](CO)N1CC1CC1)c1ccccc1`, the AC50 (in the assay with HEK293; in assay [1]) was > 52 µM (inactive) in each case.
On to `Cc1ccccc1S(=O)(=O)N1CC[C@@H]2[C@H](CO)Nc3ccc(-c4cccc(C#N)c4)cc3[C@@H]21`, for which the AC50 in the assay on A549 is 28.8 µM (active).
As to `CS(=O)(=O)N(Cc1nc2ccccc2[nH]1)c1ccccc1Cl`, the pEC50 in assay [2] is 5.61.
`COC(=O)c1cc(Br)cnc1N1CCC(NC2CCCCCC2)CC1`: the IC50 at Mu-type opioid receptor was 4.2 µM (active); in assay [3], 12 µM (inactive).
As for `CCOC(=O)c1cc(C(=O)OC)c(C)nc1N1CCC(NC2CCCCC2O)CC1` (configuration not stated), the IC50 in assay [4] was > 50 µM (inactive).
Take `O=C(Nc1cc(N2CCCCC2)ncn1)c1ccccc1Cl`: the IC50 on Protein Wnt-3a is > 21.8 µM (inactive).
Take `COC(=O)[C@@H]1[C@@H](CO)[C@@H]2Cn3c(ccc(/C=C/c4ccccc4)c3=O)[C@H]1N2C(=O)C1CCC1`: in assay [5], the AC50 was 3.47 µM (active).
As to `CN1CCN(C2=C(Nc3ccc(Cl)cc3)C(=O)c3ccccc3C2=O)CC1`, the values for the AC50 in assay [6], in assay [7] and in assay [8] were 17.4 µM (active), 39.3 µM (active) and 11.6 µM (active), respectively.
Take `CC(=C/c1ccccc1)/C=N/n1c(C)nnc1S`: the IC50 on Beta-lactamase [9] was > 59.6 µM (inactive); on Beta-lactamase [10], > 59.6 µM (inactive); at Beta Lactamase [11] it was 9.98 µM (active); at Beta-lactamase [12], > 59.6 µM (inactive); at Beta Lactamase [13], 2.5 µM (active).
